Measurements reported in ChEMBL document CHEMBL4706640, “Structure-Based Drug Design and Synthesis of PI3Kα-Selective Inhibitor (PF-06843195)” (J Med Chem, 2021).
Values after ≈ are worked out from the molar mass of the structure shown.

What was measured:
[1] = target: PI3-kinase p110-delta/p85-alpha (Homo sapiens, UniProt O00329); assay: Inhibition of recombinant human PI3K p110delta/p85alpha using phosphatidylinositol 4,5-bisphosphate as substrate preincubated for 15 mins followed by addition of ATP and measured after 30 mins by fluorescence polarisation assay; format: protein-complex assay
Sequence of PI3-kinase p110-delta/p85-alpha (P27986 whole entry, one chain of several): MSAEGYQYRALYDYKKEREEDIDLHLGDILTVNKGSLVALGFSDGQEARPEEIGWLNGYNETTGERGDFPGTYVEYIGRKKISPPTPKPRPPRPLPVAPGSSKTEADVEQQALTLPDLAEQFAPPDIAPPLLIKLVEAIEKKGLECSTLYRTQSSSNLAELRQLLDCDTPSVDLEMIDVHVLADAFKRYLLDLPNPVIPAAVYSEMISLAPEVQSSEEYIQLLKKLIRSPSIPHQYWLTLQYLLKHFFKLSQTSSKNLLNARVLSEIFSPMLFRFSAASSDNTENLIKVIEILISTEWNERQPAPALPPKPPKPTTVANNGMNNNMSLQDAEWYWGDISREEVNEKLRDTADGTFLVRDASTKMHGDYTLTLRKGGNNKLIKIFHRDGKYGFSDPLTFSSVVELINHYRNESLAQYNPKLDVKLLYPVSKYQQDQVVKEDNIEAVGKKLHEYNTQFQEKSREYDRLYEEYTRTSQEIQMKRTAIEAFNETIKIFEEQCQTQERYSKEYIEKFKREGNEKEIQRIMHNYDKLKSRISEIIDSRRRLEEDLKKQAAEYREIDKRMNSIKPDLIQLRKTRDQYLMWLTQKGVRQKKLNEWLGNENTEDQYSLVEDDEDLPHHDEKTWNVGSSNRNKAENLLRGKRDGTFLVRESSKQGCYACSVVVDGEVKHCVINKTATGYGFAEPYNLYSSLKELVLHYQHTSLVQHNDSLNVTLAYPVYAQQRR

PI3K p110 beta/p85 alpha = PI3K p110 beta/p85 alpha (Homo sapiens, UniProt P42338); assay: Inhibition of recombinant human PI3K p110beta/p85alpha using phosphatidylinositol 4,5-bisphosphate as substrate preincubated for 15 mins followed by addition of ATP and measured after 30 mins by fluorescence polarisation assay; format: protein-complex assay
Sequence of PI3K p110 beta/p85 alpha (P27986 whole entry, canonical isoform): as the sequence (P27986 whole entry, one chain of several) above
Sequence of PI3K p110 beta/p85 alpha (P42338 whole entry, canonical isoform): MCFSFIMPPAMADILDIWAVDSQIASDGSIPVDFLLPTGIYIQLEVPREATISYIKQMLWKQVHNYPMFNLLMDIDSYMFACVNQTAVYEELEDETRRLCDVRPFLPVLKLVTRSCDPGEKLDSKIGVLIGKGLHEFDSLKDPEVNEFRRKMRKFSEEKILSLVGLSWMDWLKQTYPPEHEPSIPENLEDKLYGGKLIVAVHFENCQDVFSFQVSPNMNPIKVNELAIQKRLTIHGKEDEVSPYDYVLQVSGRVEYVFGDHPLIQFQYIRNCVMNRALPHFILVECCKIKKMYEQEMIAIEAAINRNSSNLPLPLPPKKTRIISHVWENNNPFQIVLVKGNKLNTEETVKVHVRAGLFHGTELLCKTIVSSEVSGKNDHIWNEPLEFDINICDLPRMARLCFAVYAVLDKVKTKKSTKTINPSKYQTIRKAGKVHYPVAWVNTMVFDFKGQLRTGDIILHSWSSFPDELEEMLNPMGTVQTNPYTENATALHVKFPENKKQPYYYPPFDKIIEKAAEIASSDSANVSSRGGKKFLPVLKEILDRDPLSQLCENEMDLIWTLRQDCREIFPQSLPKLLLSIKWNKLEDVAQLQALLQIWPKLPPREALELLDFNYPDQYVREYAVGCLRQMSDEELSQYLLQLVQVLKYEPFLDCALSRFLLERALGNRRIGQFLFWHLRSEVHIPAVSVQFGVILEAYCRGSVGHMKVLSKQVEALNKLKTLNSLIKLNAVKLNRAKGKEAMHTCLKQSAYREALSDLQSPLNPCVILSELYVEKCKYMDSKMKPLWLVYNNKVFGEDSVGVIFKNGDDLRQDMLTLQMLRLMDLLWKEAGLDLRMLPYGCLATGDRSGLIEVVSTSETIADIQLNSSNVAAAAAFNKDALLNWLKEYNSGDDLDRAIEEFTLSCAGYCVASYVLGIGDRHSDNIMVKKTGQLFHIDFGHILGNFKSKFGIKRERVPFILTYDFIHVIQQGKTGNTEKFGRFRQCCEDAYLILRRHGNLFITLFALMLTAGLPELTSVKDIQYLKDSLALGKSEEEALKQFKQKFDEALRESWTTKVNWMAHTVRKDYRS

[2] = target: Phosphatidylinositol 4,5-bisphosphate 3-kinase catalytic subunit beta isoform (Homo sapiens, UniProt P42338); assay: Inhibition of recombinant human N-terminal Myr signal and C-terminal Flag-tagged PI3K p110beta expressed in rat Rat1 cells; format: cell-based
Sequence of Phosphatidylinositol 4,5-bisphosphate 3-kinase catalytic subunit beta isoform (P42338 whole entry, canonical isoform): as above

[3] = Passive permeability of compound in RRCK cells; format: ADME, cell-based, Canis lupus familiaris, MDCKII-LE; details: dog, MDCK; read-out: permeability
[4] = target: Phosphatidylinositol 4,5-bisphosphate 3-kinase catalytic subunit alpha isoform (Homo sapiens, UniProt P42336); assay: Inhibition of recombinant human N-terminal Myr signal and C-terminal Flag-tagged PI3K p110alpha expressed in rat Rat1 cells; format: cell-based
Sequence of Phosphatidylinositol 4,5-bisphosphate 3-kinase catalytic subunit alpha isoform (P42336 whole entry, canonical isoform): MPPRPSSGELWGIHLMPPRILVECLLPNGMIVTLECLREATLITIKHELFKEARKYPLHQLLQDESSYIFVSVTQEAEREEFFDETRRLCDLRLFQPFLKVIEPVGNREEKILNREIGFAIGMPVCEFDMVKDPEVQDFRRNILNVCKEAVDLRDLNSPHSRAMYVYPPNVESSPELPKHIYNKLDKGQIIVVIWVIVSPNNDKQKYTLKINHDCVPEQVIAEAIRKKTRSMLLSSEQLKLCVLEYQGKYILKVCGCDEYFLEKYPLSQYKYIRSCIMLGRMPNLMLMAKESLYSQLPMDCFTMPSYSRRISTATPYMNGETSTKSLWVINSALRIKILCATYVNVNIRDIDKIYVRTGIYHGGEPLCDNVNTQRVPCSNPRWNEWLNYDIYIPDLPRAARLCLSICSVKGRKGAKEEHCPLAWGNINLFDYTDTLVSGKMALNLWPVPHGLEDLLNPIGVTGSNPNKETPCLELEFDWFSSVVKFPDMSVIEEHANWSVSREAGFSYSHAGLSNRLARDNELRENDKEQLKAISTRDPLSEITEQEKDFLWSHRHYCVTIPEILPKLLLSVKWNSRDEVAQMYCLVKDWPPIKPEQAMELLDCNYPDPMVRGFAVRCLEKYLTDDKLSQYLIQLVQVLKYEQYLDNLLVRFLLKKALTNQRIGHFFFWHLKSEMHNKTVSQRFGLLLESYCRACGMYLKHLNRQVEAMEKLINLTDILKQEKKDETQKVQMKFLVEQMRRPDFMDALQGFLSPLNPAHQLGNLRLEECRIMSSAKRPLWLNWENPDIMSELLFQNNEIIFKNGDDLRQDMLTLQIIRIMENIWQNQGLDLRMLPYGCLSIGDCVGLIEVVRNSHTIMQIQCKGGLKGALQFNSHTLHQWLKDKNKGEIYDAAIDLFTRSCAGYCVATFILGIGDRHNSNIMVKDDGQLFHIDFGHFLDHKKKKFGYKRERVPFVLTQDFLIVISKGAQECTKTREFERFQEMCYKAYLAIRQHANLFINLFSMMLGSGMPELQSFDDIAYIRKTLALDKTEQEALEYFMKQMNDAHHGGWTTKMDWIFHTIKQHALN

[5] = Kinetic solubility of compound; format: physicochemical; details: read-out: Kinetic_solubility
[6] = target: T1, Phosphatidylinositol 4,5-bisphosphate 3-kinase catalytic subunit delta isoform (Homo sapiens, UniProt O00329); assay: Inhibition of recombinant human N-terminal Myr signal and C-terminal Flag-tagged PI3K p110delta expressed in rat Rat1 cells; format: cell-based
T1 sequence (O00329 whole entry): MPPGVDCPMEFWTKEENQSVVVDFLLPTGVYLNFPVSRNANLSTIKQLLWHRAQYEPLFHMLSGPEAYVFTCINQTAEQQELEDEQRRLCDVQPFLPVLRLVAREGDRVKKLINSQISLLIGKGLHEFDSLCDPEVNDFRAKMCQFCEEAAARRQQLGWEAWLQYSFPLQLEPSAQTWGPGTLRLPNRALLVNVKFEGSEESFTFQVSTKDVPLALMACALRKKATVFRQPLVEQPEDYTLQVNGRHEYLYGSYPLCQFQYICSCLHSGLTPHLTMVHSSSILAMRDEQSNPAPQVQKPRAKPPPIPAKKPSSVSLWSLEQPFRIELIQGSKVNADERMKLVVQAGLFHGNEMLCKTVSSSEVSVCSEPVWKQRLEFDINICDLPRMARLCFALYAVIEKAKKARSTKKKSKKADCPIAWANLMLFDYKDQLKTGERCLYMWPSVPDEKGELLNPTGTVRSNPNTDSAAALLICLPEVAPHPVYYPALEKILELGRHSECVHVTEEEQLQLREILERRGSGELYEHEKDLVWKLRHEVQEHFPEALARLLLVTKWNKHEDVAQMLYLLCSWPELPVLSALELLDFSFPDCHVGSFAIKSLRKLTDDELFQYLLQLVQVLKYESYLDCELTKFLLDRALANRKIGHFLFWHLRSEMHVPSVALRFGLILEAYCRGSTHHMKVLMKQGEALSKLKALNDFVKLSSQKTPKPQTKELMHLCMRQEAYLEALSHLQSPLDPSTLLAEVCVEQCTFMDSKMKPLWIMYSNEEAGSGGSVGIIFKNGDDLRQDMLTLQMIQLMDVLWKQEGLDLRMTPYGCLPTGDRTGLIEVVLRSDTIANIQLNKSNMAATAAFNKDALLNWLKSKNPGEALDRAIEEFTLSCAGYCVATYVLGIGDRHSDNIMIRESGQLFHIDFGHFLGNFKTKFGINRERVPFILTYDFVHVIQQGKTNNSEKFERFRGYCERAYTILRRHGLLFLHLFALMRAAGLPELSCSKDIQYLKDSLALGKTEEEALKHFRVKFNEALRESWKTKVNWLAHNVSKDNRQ

[7] = target: PI3-kinase p110-alpha/p85-alpha (Homo sapiens, UniProt P42336); assay: Inhibition of recombinant human full-length PI3K p110alpha/p85alpha (322 to 600) expressed in baculovirus infected Sf21 cells using phosphatidylinositol 4,5-bisphosphate as substrate preincubated for 15 mins followed by addition of ATP and measured after 30 mins by fluorescence polarisation assay
Sequence of PI3-kinase p110-alpha/p85-alpha (P27986 whole entry): as the sequence (P27986 whole entry, one chain of several) above
Sequence of PI3-kinase p110-alpha/p85-alpha (P42336 whole entry): as the sequence (P42336 whole entry, canonical isoform) above

[8] = Distribution coefficient, logD of compound at pH 7.4; format: physicochemical; details: octanol/water
[9] = Apparent intrinsic clearance in human liver microsomes; format: ADME, Microsome; details: read-out: CLH(app)
Rat1 [10] = assay: Selectivity index, ratio of IC50 for recombinant human N-terminal Myr signal and C-terminal Flag-tagged PI3K p110beta to IC50 for recombinant human N-terminal Myr signal and C-terminal Flag-tagged PI3K p110alpha expressed in rat Rat1 cells; format: cell-based
Rat1 [11] = assay: Selectivity index, ratio of IC50 for recombinant human N-terminal Myr signal and C-terminal Flag-tagged PI3K p110delta to IC50 for recombinant human N-terminal Myr signal and C-terminal Flag-tagged PI3K p110alpha expressed in rat Rat1 cells; format: cell-based
Homo sapiens [12] = organism: Homo sapiens; assay: Selectivity index, ratio of Ki for recombinant human PI3K p110delta/p85alpha to Ki for recombinant human full-length PI3K p110alpha/p85alpha (322 to 600) using phosphatidylinositol 4,5-bisphosphate as substrate
Homo sapiens [13] = organism: Homo sapiens; assay: Selectivity index, ratio of Ki for recombinant human PI3K p110beta/p85alpha to Ki for recombinant human full-length PI3K p110alpha/p85alpha (322 to 600) using phosphatidylinositol 4,5-bisphosphate as substrate

SMILES | Ki [1] [nM] | Ki (PI3K p110 beta/p85 alpha) [nM] | IC50 [2] [nM] | Papp [3] [×10⁻⁶ cm/s] | IC50 [4] [nM] | solubility kinetic [5] [µM] | IC50 [6] [nM] | Ki [7] [nM] | logD [8] | microsomal CLint [9] [µL/min/mg] | Ratio IC50 (Rat1 [10]) | Ratio IC50 (Rat1 [11]) | Ratio Ki (Homo sapiens [12]) | Ratio Ki (Homo sapiens [13])
CNS(=O)(=O)N1CC[C@](C)(N2CCc3c(-c4cnc(N)nc4)nc(N4CCOCC4)nc32)C1 | < 0.28 | 4.9 | 170 | 24 | 27 | 510 (≈ 243 µg/mL) | 44 | < 0.018 | 1.9 | 20 |  |  |  | 
COC(=O)N1CC[C@H](N2CCc3c(-c4cnc(N)nc4)nc(N4CCOCC4)nc32)C1 | 9.6 | 36 |  | 20 |  | 56 (≈ 23.9 µg/mL) |  |  | 1.9 | < 8 |  |  |  | 
CNC(=O)N1CC[C@](C)(N2CCc3c(-c4cnc(N)nc4)nc(N4CCOCC4)nc32)C1 | 0.72 | 24 | 410 | 13 | 73 | 460 (≈ 202 µg/mL) | 110 | 0.084 | 1.7 | < 11 |  |  |  | 
CC(C)C(=O)N1CC[C@](C)(N2CCc3c(-c4cnc(N)nc4)nc(N4CCOCC4)nc32)C1 | < 0.28 | 17 | 260 | 36 | 6.9 | 500 (≈ 226 µg/mL) | 17 | < 0.018 | 2.4 | 46 | 37 | 3 |  | 
Nc1ncc(-c2ccnc(N3CCOCC3)n2)cn1 | 81 | 15 |  | 28 |  | 210 (≈ 54.2 µg/mL) |  |  | 1.5 |  |  |  |  | 
CC(C)(C)OC(=O)N1CC[C@](CO)(Nc2cc(-c3cnc(N)nc3)nc(N3CCOCC3)n2)C1 | 2.1 | 54 | 4600 | 18 |  | 460 (≈ 217 µg/mL) | 1200 |  | 2.7 | 140 |  |  |  | 
CC(C)C(=O)N1CC[C@](CO)(Nc2cc(-c3cnc(N)nc3)nc(N3CCOCC3)n2)C1 | < 0.28 | 19 | > 10000 | 0.19 |  | 540 (≈ 239 µg/mL) | > 10000 |  | 1.4 | 17 |  |  |  | 
COC(=O)N1CC[C@](CO)(Nc2cc(-c3cnc(N)nc3)nc(N3CCOCC3)n2)C1 | < 0.28 | 1.7 | 1800 | 1 | 91 | 19 (≈ 8.18 µg/mL) | 2300 |  | 1.5 | 13 |  |  |  | 
COC(=O)N1CC[C@](C)(N2CCc3c(-c4cnc(N)nc4)nc(N4CCOCC4)nc32)C1 | < 0.28 | 0.79 | 45 | 27 | 5 | 490 (≈ 216 µg/mL) | 13 | < 0.023 | 2.6 | 29 |  |  |  | 
Nc1ncc(-c2nc(N3CCOCC3)nc3c2CCN3[C@H]2CCNC2)cn1 | 40 | 17 |  | 1.9 |  | 430 (≈ 158 µg/mL) |  | 2.1 | -0.74 | 13 |  |  |  | 
CNS(=O)(=O)N1CC[C@H](N2CCc3c(-c4cnc(N)nc4)nc(N4CCOCC4)nc32)C1 | 4.5 | 16 |  | 16 | 130 | 380 (≈ 175 µg/mL) |  | 0.12 | 1.4 | < 11 |  |  | 37 | 125
CC(C)(C)OC(=O)N1CC[C@](C)(Nc2cc(-c3cnc(N)nc3)nc(N3CCOCC3)n2)C1 | 5.1 | 68 | 5000 | 11 | 110 | 270 (≈ 123 µg/mL) | 460 |  | 3.8 | 110 |  |  |  | 
CC(C)(N)C(=O)N1CC[C@](C)(N2CCc3c(-c4cnc(N)nc4)nc(N4CCOCC4)nc32)C1 | 2.5 | 13 | 330 | 4.2 | 25 | 460 (≈ 215 µg/mL) | 120 | 0.023 | 0.4 | < 9 | 13 | 5 |  | 
CS(=O)(=O)N1CC[C@H](N2CCc3c(-c4cnc(N)nc4)nc(N4CCOCC4)nc32)C1 | 4.5 | 16 |  | 18 |  | 61 (≈ 27.2 µg/mL) |  | 0.15 | 1.3 | < 8 |  |  |  | 
CC(C)(O)C(=O)N1CC[C@](C)(N2CCc3c(-c4cnc(N)nc4)nc(N4CCOCC4)nc32)C1 | 6.7 | 46 | 1000 | 25 | 53 | 460 (≈ 216 µg/mL) | 150 | 0.03 | 2 | 16 |  |  |  | 
C[C@]1(N2CCc3c(-c4cnc(N)nc4)nc(N4CCOCC4)nc32)CCN(S(C)(=O)=O)C1 | 0.26 | 9.1 | 150 | 26 | 34 | 540 (≈ 249 µg/mL) | 76 | < 0.029 | 1.6 | 36 |  |  |  | 
CC(=O)N1CC[C@H](N2CCc3c(-c4cnc(N)nc4)nc(N4CCOCC4)nc32)C1 | 22 | 20 |  | 13 |  | 530 (≈ 218 µg/mL) |  |  | 1.1 | < 8 |  |  | 19 | 17
Nc1ncc(-c2cc(N[C@@]3(CO)CCN(C(=O)OCC(F)F)C3)nc(N3CCOCC3)n2)cn1 | < 0.28 | 4 | 1900 | 3.9 | 52 | 9.9 (≈ 4.76 µg/mL) | 1000 |  | 1.7 | 17 |  |  |  | 
CS(=O)(=O)N1CC[C@](CO)(Nc2cc(-c3cnc(N)nc3)nc(N3CCOCC3)n2)C1 | < 0.28 | 11 | > 10000 | 0.22 | 1300 |  | > 10000 |  | 0.79 | < 8 |  |  |  | 
COC(=O)N1CC[C@](CO)(Nc2nc(N3CCOCC3)nc(-c3cnc(N)nc3)c2F)C1 | < 0.28 | 5 | 360 | 6.2 | 47 | 42 (≈ 18.8 µg/mL) | 300 | < 0.018 | 1.6 | < 8 |  |  |  | 
CNC(=O)N1CC[C@H](N2CCc3c(-c4cnc(N)nc4)nc(N4CCOCC4)nc32)C1 | 3.7 | 24 |  | 6.1 |  | 390 (≈ 166 µg/mL) |  | 0.58 | 1.3 | < 8 |  |  |  | 
CC(=O)N1CC[C@@](C)(N2CCc3c(-c4cnc(N)nc4)nc(N4CCOCC4)nc32)C1 | 1.2 | 6.7 | 95 | 16 | 35 | 520 (≈ 221 µg/mL) | 74 | 0.078 | 1.6 | < 8 |  |  |  | 
